According to EP0934259B1, “BETA-SULFONAMIDO HYDROXAMIC ACIDS AS MATRIX METALLOPROTEINASE AND TACE INHIBITORS” (American Cyanamid Company, priority 1996, dated 1998):

Legend:
Assay type in all cases: biochemical
MMP-1 = target: T1, MMP-1 (Homo sapiens, UniProt P03956); assay: MMP-1 inhibition (thiopeptide or fluorescent peptide substrate assay)
T1 sequence (P03956 100-469): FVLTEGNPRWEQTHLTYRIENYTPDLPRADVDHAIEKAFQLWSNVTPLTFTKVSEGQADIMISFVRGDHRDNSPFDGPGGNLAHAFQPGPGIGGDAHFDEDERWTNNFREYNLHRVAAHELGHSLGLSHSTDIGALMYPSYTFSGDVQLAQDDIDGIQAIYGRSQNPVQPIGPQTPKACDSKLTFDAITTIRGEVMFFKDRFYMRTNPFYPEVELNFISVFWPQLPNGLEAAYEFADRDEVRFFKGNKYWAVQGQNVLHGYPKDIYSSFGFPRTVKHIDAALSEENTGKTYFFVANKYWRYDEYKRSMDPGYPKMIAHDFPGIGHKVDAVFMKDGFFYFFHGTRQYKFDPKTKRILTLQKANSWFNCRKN
Description: (§1) These assays are based on the cleavage of a thiopeptide substrates such as Ac-Pro-Leu-Gly(2-mercapto-4-methyl-pentanoyl)-Leu-Gly-OEt by the matrix metalloproteinases MMP-1, MMP-13 (collagenases) or MMP-9 (gelatinase), which results in the release of a substrate product that reacts colorimetrically with DTNB (5,5'-dithiobis(2-nitro-benzoic acid)). The enzyme activity is measured by the rate of the color increase. The thiopeptide substrate is made up fresh as a 20 mM stock in 100% DMSO and the DTNB is dissolved in 100% DMSO as a 100 mM stock and stored in the dark at room temperature. […] The assay buffer, enzyme, vehicle or inhibitor, and DTNB/substrate are added in this order to a 96 well plate (total reaction volume of 200 µl) and the increase in color is monitored spectrophotometrically for 5 minutes at 405 nm on a plate reader and the increase in color over time is plotted as a linear line.
(§2) Alternatively, a fluorescent peptide substrate is used. […] Upon cleavage of the substrate by an MMP, the fluorescence that is generated is quantitated on the fluorescence plate reader. […] The reaction is read (excitation 340 nm, emission 444 nm) for 10 min, and the increase in fluorescence over time is plotted as a linear line.
(§3) For either the thiopeptide or fluorescent peptide assays, the slope of the line is calculated and represents the reaction rate. […]

MMP-9 = MMP-9 (Homo sapiens, UniProt P14780); assay: MMP-9 inhibition (thiopeptide or fluorescent peptide substrate assay)
Description: as §1, §2, §3

TACE = target: T2, TACE (Homo sapiens, UniProt P78536); assay: TACE inhibition (fluorescent peptidyl substrate assay)
T2 construct: purchased Immunex
Description: Using 96-well black microtiter plates, each well receives a solution composed of 10 µL TACE (Immunex, final concentration 1µg/mL), 70µL Tris buffer, pH 7.4 containing 10% glycerol (final concentration 10 mM), and 10 µL of test compound solution in DMSO (final concentration 1µM, DMSO concentration <1%) and incubated for 10 minutes at room temperature. The reaction is initiated by addition of a fluorescent peptidyl substrate (final concentration 100 µM) to each well and then shaking on a shaker for 5 sec.
The reaction is read (excitation 340 nm, emission 420 nm) for 10 min. and the increase in fluorescence over time is plotted as a linear line. The slope of the line is calculated and represents the reaction rate.
The linearity of the reaction rate is confirmed (r^2 >0.85). The mean (x±sem) of the control rate is calculated and compared for statistical significance (p<0.05) with drug-treated rates using Dunnett's multiple comparison test. Dose-response relationships can be generate using multiple doses of drug and IC50 values with 95% CI are estimated using linear regression.

Chain of MMP-9 (P14780 94-707): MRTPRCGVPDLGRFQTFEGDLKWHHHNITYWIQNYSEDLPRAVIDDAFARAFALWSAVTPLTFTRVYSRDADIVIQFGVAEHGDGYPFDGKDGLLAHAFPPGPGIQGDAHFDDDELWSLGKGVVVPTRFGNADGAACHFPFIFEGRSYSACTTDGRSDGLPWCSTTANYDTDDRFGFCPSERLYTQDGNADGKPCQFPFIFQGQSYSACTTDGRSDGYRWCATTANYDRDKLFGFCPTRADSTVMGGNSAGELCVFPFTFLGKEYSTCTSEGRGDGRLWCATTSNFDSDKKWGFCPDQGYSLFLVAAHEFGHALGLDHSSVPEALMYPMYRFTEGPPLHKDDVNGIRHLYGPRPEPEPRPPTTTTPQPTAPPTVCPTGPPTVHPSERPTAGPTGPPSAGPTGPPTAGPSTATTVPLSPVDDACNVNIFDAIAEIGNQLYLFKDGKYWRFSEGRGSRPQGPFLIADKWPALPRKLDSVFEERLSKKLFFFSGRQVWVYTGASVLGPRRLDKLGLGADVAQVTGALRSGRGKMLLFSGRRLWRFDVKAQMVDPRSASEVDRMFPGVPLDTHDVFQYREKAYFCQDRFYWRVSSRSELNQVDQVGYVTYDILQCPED
T2 sequence (P78536 215-824): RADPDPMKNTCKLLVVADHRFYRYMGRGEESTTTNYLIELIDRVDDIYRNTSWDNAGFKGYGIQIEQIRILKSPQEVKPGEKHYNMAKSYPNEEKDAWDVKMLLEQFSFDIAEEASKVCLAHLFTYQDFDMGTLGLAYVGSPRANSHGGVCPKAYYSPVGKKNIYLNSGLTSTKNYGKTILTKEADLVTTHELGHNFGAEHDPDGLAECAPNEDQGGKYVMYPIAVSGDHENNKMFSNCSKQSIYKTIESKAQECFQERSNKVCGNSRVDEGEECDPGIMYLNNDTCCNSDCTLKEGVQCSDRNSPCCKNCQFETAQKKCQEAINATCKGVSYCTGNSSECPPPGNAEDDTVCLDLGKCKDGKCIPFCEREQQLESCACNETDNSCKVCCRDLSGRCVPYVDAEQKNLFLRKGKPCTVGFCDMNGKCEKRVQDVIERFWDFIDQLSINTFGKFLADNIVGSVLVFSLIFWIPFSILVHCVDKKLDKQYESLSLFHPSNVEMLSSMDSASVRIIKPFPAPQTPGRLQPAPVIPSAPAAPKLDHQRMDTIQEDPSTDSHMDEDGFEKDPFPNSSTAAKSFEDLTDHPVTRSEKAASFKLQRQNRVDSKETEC

| Structure (SMILES) | IC50 (MMP-1) | IC50 (MMP-9) | IC50 (TACE) | inhibition at 1 µM (TACE; read-out: TACE % inhibition at 1 µM concentration) |
| --- | --- | --- | --- | --- |
| COc1ccc(S(=O)(=O)N(Cc2ccccc2)[C@@H]2CCCC[C@H]2C(=O)NO)cc1 (relative stereo) [Example 9, (trans)-2-[Benzyl-(4-methoxy-benzenesulfonyl)-amino]-cyclohexanecarboxylic acid hydroxyamide] | 176 nM | 181 nM | 1610 nM | – |
| COc1ccc(S(=O)(=O)N(Cc2ccccc2)[C@H]2CCCC[C@H]2C(=O)NO)cc1 (relative stereo) [Example 10, (cis)-2-[Benzyl-(4-methoxy-benzenesulfonyl)-amino]-cyclohexanecarboxylic acid hydroxyamide] | 616 nM | 275 nM | – | 24% |
